Like-named read-outs stand apart in the source and are kept apart here.
Test system: SARS-CoV-2 strain USA-WA1/2020
Experiment: microbe, parasite or virus in culture
Format: cell-based
Details: Severe acute respiratory syndrome coronavirus 2, HeLa-ACE2, 24 h, read-out: EC50, uM (Hela)
[1] = HeLa-ACE2 cells, SARS-CoV-2 infection, 24 h, class symbols
[2] = HeLa-ACE2 cells, SARS-CoV-2 infection, 24 h

SMILES	EC50 [1] [µM]	EC50 [2] [µM]	further results
CC(C)(F)c1cc(C(=O)N2C[C@H]3[C@@H]([C@H]2C(=O)N[C@@H](C[C@@H]2CCNC2=O)C(=O)COc2c(F)c(F)cc(F)c2F)C3(C)C)no1 [Compound 284, (1R,2S,5S)-3-(5-(2-fluoropropan-2-yl)isoxazole-3-carbonyl)-6,6-dimethyl-N-((S)-3-oxo-1-((S)-2-oxopyrrolidin-3-yl)-4-(2,3,5,6-tetrafluorophenoxy)butan-2-yl)-3-azabicyclo-[3.1.0]hexane-2-carboxamide]	0.2 to 0.5	–	–
CC1(CC(=O)N2CC3(CC3)C[C@H]2C(=O)N[C@@H](C[C@@H]2CCNC2=O)C(=O)COC(F)(F)F)CCCC1 [Compound 711, (S)-5-(2-(l-methylcyclopentyl)acetyl)-N-((S)-3-oxo-1-((S)-2-oxopyrrolidin-3-yl)-4-(trifluoromethoxy)butan-2-yl)-5-azaspiro[2.4]heptane-6-carboxamide]	–	< 0.05	–
O=C1NCC[C@H]1C[C@H](NC(=O)[C@@H]1CC2(CC2)CN1C(=O)C(O)c1ccc(F)cc1F)C(=O)COC(F)(F)F (stereo partly drawn) [Compound 402, (6S)-5-(2-(2,4-difluorophenyl)-2-hydroxyacetyl)-N-((S)-3-oxo-1-((S)-2-oxopyrrolidin-3-yl)-4-(trifluoromethoxy)butan-2-yl)-5-azaspiro[2.4]heptane-6-carboxamide]	–	< 0.05	–
CC(=O)N1C[C@H](C(F)(F)F)C[C@H]1C(=O)N[C@@H](C[C@@H]1CCNC1=O)C(=O)COC(F)(F)F [Compound 724, (2S,4R)-1-acetyl-N-((S)-3-oxo-1-((S)-2-oxopyrrolidin-3-yl)-4-(trifluoromethoxy)butan-2-yl)-4-(trifluoromethyl)pyrrolidine-2-carboxamide]	–	0.05 to 0.2	–
CC(C)C[C@@H](O)C(=O)N1C[C@@H]2CCC[C@@H]2[C@H]1C(=O)N[C@@H](C[C@@H]1CCNC1=O)C(=O)COC(F)(F)F [Compound 363, (1S,3aR,6aS)-2-((R)-2-hydroxy-4-methylpentanoyl)-N-((S)-3-oxo-1-((S)-2-oxopyrrolidin-3-yl)-4-(trifluoromethoxy)butan-2-yl)octahydrocyclo-penta[c]pyrrole-1-carboxamide]	< 0.05	–	–
CC(C)(NC(=O)C(=O)N1CC2(CC2)C[C@H]1C(=O)N[C@@H](C[C@@H]1CCNC1=O)C(=O)COC(F)(F)F)C(F)(F)F [Compound 590, (S)-N-((S)-3-oxo-1-((S)-2-oxopyrrolidin-3-yl)-4-(trifluoromethoxy)butan-2-yl)-5-(2-oxo-2-((1,1,1-trifluoro-2-methylpropan-2-yl)amino)acetyl)-5-azaspiro[2.4]heptane-6-carboxamide]	–	0.05 to 0.2	–
CC(C)C[C@H](NC(=O)C(=O)NC1(C)CC1)C(=O)N[C@@H](C[C@@H]1CCNC1=O)C(=O)COc1c(F)c(F)cc(F)c1F [Compound 99, N1-((S)-4-methyl-1-oxo-1-(((S)-3-oxo-1-((S)-2-oxopyrrolidin-3-yl)-4-(2,3,5,6-tetrafluorophenoxy)butan-2-yl)amino)pentan-2-yl)-N2-(1-methyl-cyclopropyl)oxalamide]	0.05 to 0.2	–	–
CCCCCC(=O)N1CC2(CC2)C[C@H]1C(=O)N[C@@H](C[C@@H]1CCNC1=O)C(=O)COC(F)(F)F [Compound 708, (S)-5-hexanoyl-N-((S)-3-oxo-1-((S)-2-oxopyrrolidin-3-yl)-4-(trifluoromethoxy)butan-2-yl)-5-azaspiro[2.4]heptane-6-carboxamide]	–	0.05 to 0.2	–
CCc1ccccc1NC(=O)C(=O)N[C@@H](CC(C)C)C(=O)N[C@@H](C[C@@H]1CCNC1=O)C(=O)COc1c(F)c(F)cc(F)c1F [Compound 63, N1-(2-ethylphenyl)-N2-((S)-4-methyl-1-oxo-1-(((S)-3-oxo-1-((S)-2-oxopyrrolidin-3-yl)-4-(2,3,5,6-tetrafluorophenoxy)butan-2-yl)amino)pentan-2-yl)oxalamide]	< 0.05	–	–
O=C1NCC[C@H]1C[C@H](NC(=O)[C@@H]1[C@H]2CCC[C@H]2CN1C(=O)C1OCCC1(F)F)C(=O)COC(F)(F)F (stereo partly drawn) [Compound 323, (1S,3aR,6aS)-2-(3,3-difluorotetrahydrofuran-2-carbonyl)-N-((S)-3-oxo-1-((S)-2-oxopyrrolidin-3-yl)-4-(trifluoromethoxy)butan-2-yl)octahydrocyclo-penta[c]pyrrole-1-carboxamide]	0.05 to 0.2	–	–
O=C1NCC[C@H]1C[C@H](NC(=O)[C@@H]1CC2(CC2)CN1C(=O)[C@H](CO)c1ccccc1)C(=O)COC(F)(F)F [Compound 595, (S)-5-((S)-3-hydroxy-2-phenylpropanoyl)-N-((S)-3-oxo-1-((S)-2-oxopyrrolidin-3-yl)-4-(trifluoromethoxy)butan-2-yl)-5-azaspiro[2.4]-heptane-6-carboxamide]	–	0.05 to 0.2	–
Cc1ccccc1NC(=O)C(=O)N(C)[C@@H](CC(C)C)C(=O)N[C@@H](C[C@@H]1CCNC1=O)C(=O)COc1c(F)c(F)cc(F)c1F [Compound 105, N1-methyl-N1-((S)-4-methyl-1-oxo-1-(((S)-3-oxo-1-((S)-2-oxopyrrolidin-3-yl)-4-(2,3,5,6-tetrafluorophenoxy)butan-2-yl)amino)pentan-2-yl)-N2-(o-tolyl)oxalamide]	–	–	EC50 (HeLa-ACE2 cells, SARS-CoV-2 infection, 24 h, cells given as a bound): > 1 µM
C[C@H](C[C@@H](O)C(=O)N1CC2(CC2)C[C@H]1C(=O)N[C@@H](C[C@@H]1CCNC1=O)C(=O)COC(F)(F)F)C(F)(F)F (single isomer, unassigned) [Compound 426]	–	< 0.05	–
CCNC(=O)O[C@@H](C(=O)N1CC2(CC2)C[C@H]1C(=O)N[C@@H](C[C@@H]1CCNC1=O)C(=O)COC(F)(F)F)C(C)(C)C [Compound 332, (R)-3,3-dimethyl-1-oxo-l-((S)-6-(((S)-3-oxo-1-((S)-2-oxopyrrolidin-3-yl)-4-(trifluoromethoxy)butan-2-yl)carbamoyl)-5-azaspiro[2.4]heptan-5-yl)butan-2-yl ethylcarbamate]	–	–	EC50: 0.5 to 1 µM
CC1(NC(=O)C(=O)N2[C@H](C(=O)N[C@@H](C[C@@H]3CCNC3=O)C(=O)COC(F)(F)F)CCC23CC3)CC1 [Compound 541, (S)-4-(2-((l-methyl-cyclopropyl)amino)-2-oxoacetyl)-N-((S)-3-oxo-1-((S)-2-oxopyrrolidin-3-yl)-4-(trifluoromethoxy)butan-2-yl)-4-azaspiro-[2.4]heptane-5-carboxamide]	–	–	EC50 (HeLa-ACE2 cells, SARS-CoV-2 infection, 24 h, given as bound): > 1 µM
O=C(Nc1ccccc1F)C(=O)N1[C@H](C(=O)N[C@@H](C[C@@H]2CCNC2=O)C(=O)COC(F)(F)F)C[C@@H]2C[C@@H]21 [Compound 539, (1S,3S,5S)-2-(2-((2-fluorophenyl)amino)-2-oxoacetyl)-N-((S)-3-oxo-1-((S)-2-oxopyrrolidin-3-yl)-4-(trifluoromethoxy)butan-2-yl)-2-azabicyclo-[3.1.0]hexane-3-carboxamide]	–	0.05 to 0.2	–
C[C@@](O)(C(=O)N1CC2(CC2)C[C@H]1C(=O)N[C@@H](C[C@@H]1CCNC1=O)C(=O)COC(F)(F)F)C(F)(F)F [Compound 722, (S)-N-((S)-3-oxo-1-((S)-2-oxopyrrolidin-3-yl)-4-(trifluoromethoxy)butan-2-yl)-5-((R)-3,3,3-trifluoro-2-hydroxy-2-methylpropanoyl)-5-azaspiro[2.4]heptane-6-carboxamide]	–	0.05 to 0.2	–
CC1(NC(=O)C(=O)N2[C@H]3CC[C@H](C3)[C@H]2C(=O)N[C@@H](C[C@@H]2CCNC2=O)C(=O)COC(F)(F)F)CC1 [Compound 546, (1S,3S,4R)-2-(2-((l-methylcyclopropyl)-amino)-2-oxoacetyl)-N-((S)-3-oxo-1-((S)-2-oxopyrrolidin-3-yl)-4-(trifluoromethoxy)butan-2-yl)-2-azabicyclo-[2.2.1]heptane-3-carboxamide]	–	0.2 to 0.5	–
CC(C)C[C@@H](O)C(=O)N1CCCCC[C@H]1C(=O)N[C@@H](C[C@@H]1CCNC1=O)C(=O)COC(F)(F)F [Compound 639, (S)-1-((R)-2-hydroxy-4-methylpentanoyl)-N-((S)-3-oxo-1-((S)-2-oxopyrrolidin-3-yl)-4-(trifluoromethoxy)butan-2-yl)azepane-2-carboxamide]	–	< 0.05	–
CC[C@@H](C)[C@@H](O)C(=O)N1C[C@@H]2CCC[C@@H]2[C@H]1C(=O)N[C@@H](C[C@@H]1CCNC1=O)C(=O)COC(F)(F)F [Compound 379, (1S,3aR,6aS)-2-((2R,3R)-2-hydroxy-3-methylpentanoyl)-N-((S)-3-oxo-1-((S)-2-oxopyrrolidin-3-yl)-4-(trifluoromethoxy)butan-2-yl)octahydrocyclo-penta[c]pyrrole-1-carboxamide]	< 0.05	–	–
CC(C)(O)C(=O)N1C[C@H]2[C@@H]([C@H]1C(=O)N[C@@H](C[C@@H]1CCNC1=O)C(=O)COC(F)(F)F)C2(C)C [Compound 351, (1R,2S,5S)-3-(2-hydroxy-2-methylpropanoyl)-6,6-dimethyl-N-((S)-3-oxo-1-((S)-2-oxopyrrolidin-3-yl)-4-(trifluoromethoxy)butan-2-yl)-3-azabicyclo-[3.1.0]hexane-2-carboxamide]	0.05 to 0.2	–	–
O=C(NC(CC1CCOCC1)C(=O)N[C@@H](C[C@@H]1CCNC1=O)C(=O)COC(F)(F)F)C(=O)NC12CC(F)(C1)C2 (stereo partly drawn) [Compound 510, N1-(3-fluorobicyclo-[1.1.1]pentan-1-yl)-N2-(1-oxo-1-(((S)-3-oxo-1-((S)-2-oxopyrrolidin-3-yl)-4-(trifluoromethoxy)butan-2-yl)amino)-3-(tetrahydro-2H-pyran-4-yl)propan-2-yl)oxalamide]	–	0.2 to 0.5	–
CC1(C)[C@@H]2[C@@H](C(=O)N[C@@H](C[C@@H]3CCNC3=O)C(=O)COC(F)(F)F)N(C(=O)[C@H]3CCCO3)C[C@@H]21 [Compound 291, (1R,2S,5S)-6,6-dimethyl-N-((S)-3-oxo-1-((S)-2-oxopyrrolidin-3-yl)-4-(trifluoromethoxy)butan-2-yl)-3-((R)-tetrahydrofuran-2-carbonyl)-3-azabicyclo-[3.1.0]hexane-2-carboxamide]	0.05 to 0.2	–	–

Reference: patent US11708348B2, “Protease inhibitors for treatment of coronavirus infections” (The Scripps Research Institute, priority 2021, dated 2023)
